Laboratory results reported in publication PMC8222254, “Self-assembly of an anion receptor with metal-dependent kinase inhibition and potent in vitro anti-cancer properties” (Nature Communications, 2021).
Where “and” joins values, the source holds several entries; their conditions need not be identical. Equal values may be shown once.

What was measured:
Test in all cases: Kinase inhibition screen, cell-free 33P ATP assay at 10 μM
Assay type in all cases: biochemical
[1] = target: 140 purified human kinases (Homo sapiens, UniProt Q15746); conditions: SmMLCK
140 purified human kinases (Homo sapiens, UniProt Q15746), sequence (Q15746 whole entry): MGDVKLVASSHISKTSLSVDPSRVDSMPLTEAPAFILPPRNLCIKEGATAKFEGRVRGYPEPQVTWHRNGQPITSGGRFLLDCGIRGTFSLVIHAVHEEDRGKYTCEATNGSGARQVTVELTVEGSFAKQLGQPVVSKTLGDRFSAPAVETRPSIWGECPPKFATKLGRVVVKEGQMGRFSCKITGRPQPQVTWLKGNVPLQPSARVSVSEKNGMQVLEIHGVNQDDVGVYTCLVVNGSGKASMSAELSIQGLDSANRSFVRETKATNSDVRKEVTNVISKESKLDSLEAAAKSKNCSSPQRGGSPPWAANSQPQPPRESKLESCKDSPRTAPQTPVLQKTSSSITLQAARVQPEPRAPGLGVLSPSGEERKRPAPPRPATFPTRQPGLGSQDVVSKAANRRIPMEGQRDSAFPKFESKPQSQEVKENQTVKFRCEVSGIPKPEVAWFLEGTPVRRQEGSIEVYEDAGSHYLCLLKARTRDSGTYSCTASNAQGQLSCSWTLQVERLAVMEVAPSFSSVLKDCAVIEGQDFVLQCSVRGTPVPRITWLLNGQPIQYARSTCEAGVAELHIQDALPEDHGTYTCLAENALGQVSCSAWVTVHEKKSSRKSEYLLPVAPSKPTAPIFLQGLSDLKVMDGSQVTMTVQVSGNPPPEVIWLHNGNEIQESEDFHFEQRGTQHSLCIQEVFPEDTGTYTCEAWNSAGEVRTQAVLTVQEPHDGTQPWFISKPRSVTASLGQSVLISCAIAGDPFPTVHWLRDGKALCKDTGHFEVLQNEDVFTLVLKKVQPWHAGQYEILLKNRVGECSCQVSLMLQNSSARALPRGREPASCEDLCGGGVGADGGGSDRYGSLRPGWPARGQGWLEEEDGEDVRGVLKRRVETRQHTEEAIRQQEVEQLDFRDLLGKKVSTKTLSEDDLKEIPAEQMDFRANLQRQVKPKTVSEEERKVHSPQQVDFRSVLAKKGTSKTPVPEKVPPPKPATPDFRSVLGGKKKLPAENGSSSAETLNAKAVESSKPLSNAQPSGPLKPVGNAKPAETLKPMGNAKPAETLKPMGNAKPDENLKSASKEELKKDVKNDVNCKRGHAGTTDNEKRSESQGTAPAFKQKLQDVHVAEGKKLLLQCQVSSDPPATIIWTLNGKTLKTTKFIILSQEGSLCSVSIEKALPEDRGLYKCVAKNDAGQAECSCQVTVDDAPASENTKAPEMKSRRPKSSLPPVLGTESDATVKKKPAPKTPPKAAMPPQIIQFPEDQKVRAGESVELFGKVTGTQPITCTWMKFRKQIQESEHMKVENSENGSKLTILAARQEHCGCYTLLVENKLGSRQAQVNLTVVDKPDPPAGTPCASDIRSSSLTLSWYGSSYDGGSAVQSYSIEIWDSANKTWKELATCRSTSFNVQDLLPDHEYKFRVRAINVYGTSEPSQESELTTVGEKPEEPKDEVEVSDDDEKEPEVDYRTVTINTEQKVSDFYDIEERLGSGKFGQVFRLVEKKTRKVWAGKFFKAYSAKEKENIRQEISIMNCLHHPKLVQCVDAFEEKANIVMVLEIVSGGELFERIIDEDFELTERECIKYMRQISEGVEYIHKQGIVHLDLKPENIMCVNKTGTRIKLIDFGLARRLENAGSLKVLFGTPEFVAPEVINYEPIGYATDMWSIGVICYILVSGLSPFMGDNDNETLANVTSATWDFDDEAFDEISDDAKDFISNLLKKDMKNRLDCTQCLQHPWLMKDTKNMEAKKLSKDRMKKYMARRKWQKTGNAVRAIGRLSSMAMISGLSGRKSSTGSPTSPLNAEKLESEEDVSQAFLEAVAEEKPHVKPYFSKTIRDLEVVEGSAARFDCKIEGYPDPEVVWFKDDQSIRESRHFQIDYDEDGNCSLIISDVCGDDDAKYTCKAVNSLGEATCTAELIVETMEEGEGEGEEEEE
In short: (§1)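 Each complex tested in duplicate at 10 μM; cell-free radiometric assay using ^33P ATP on purified enzymes. Hits mapped by HGNC symbol onto the kinome tree.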

[2] = target: 140 purified human kinases (Homo sapiens, UniProt P11362)
In short: as §1

[3] = target: T1, 140 purified human kinases (Homo sapiens, UniProt Q15139)
T1 sequence (Q15139 1-912): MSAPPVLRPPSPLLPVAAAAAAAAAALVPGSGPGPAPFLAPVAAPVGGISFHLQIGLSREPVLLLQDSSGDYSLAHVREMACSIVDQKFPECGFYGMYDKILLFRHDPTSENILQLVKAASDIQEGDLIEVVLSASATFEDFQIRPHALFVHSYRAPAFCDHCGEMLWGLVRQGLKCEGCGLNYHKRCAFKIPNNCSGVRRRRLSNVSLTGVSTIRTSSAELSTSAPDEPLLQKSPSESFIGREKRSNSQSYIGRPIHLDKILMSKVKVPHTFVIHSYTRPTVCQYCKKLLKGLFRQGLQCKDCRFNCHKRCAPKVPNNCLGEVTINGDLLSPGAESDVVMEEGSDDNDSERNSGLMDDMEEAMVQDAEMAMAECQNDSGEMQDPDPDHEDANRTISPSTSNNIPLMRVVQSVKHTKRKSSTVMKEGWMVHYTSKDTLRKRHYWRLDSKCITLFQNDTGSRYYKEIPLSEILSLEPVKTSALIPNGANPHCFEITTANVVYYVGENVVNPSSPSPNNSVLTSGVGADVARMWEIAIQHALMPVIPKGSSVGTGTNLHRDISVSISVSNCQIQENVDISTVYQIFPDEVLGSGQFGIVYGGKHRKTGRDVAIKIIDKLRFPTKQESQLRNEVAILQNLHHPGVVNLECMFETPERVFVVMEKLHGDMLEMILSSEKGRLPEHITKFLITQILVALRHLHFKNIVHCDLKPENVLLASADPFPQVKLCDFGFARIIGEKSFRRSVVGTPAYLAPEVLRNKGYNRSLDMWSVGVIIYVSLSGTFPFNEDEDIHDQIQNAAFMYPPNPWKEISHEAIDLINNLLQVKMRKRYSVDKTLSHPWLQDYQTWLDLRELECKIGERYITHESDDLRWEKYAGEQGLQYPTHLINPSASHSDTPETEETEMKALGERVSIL
In short: as §1

[4] = target: 140 purified human kinases (Homo sapiens, UniProt P51812)
140 purified human kinases (Homo sapiens, UniProt P51812), sequence (P51812 whole entry): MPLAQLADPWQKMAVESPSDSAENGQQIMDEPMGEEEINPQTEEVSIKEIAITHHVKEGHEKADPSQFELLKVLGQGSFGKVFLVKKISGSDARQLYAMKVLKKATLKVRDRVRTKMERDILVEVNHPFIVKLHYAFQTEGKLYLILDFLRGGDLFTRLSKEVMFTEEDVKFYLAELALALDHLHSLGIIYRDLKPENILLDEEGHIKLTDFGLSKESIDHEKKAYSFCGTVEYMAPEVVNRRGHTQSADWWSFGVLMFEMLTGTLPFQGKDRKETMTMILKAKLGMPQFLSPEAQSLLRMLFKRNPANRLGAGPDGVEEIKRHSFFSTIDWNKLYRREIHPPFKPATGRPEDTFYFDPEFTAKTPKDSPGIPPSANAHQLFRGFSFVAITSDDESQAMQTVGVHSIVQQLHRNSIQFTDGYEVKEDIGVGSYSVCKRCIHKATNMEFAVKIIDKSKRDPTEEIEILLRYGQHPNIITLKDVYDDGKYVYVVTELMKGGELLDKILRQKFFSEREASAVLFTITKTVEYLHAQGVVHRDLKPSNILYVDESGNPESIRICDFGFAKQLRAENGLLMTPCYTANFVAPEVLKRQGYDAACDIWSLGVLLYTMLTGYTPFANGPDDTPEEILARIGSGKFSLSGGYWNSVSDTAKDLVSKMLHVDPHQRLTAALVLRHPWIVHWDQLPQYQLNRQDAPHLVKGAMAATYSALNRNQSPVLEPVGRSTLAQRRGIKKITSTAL
In short: as §1

[5] = target: 140 purified human kinases (Homo sapiens, UniProt Q9H2X6)
140 purified human kinases (Homo sapiens, UniProt Q9H2X6), sequence (Q9H2X6 whole entry): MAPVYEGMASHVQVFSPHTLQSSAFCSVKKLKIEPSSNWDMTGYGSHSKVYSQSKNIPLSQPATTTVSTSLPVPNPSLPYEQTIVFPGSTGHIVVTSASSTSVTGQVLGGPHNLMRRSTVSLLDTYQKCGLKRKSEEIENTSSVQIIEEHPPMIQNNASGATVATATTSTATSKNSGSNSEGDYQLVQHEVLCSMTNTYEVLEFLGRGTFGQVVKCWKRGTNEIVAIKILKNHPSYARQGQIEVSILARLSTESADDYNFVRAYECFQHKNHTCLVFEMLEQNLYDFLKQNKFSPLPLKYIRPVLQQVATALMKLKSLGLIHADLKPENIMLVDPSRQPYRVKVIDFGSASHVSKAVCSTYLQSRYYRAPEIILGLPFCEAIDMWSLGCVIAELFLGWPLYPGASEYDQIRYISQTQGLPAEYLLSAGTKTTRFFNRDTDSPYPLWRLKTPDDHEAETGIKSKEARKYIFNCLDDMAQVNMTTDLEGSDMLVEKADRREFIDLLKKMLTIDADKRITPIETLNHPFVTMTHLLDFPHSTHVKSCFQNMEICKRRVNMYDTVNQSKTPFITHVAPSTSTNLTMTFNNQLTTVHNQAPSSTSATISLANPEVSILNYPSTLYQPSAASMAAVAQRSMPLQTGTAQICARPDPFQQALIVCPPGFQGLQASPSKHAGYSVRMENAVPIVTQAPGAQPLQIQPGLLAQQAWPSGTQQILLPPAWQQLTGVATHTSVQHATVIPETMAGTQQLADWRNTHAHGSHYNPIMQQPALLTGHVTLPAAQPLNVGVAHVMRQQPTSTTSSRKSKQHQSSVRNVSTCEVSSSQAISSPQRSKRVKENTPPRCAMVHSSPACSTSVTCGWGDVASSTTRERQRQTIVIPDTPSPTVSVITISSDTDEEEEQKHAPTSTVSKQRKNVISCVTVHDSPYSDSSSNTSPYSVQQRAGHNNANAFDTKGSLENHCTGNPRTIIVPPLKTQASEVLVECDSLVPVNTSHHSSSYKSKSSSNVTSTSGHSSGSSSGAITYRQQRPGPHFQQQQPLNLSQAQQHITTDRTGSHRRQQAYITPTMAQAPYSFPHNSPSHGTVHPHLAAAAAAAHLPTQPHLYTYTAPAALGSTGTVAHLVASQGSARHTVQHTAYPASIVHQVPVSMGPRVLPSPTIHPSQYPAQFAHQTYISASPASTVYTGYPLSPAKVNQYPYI
In short: as §1

[6] = target: 140 purified human kinases (Homo sapiens, UniProt O95747); conditions: for % Activity Run 1 / % Activity Run 2: 10 µM
140 purified human kinases (Homo sapiens, UniProt O95747), sequence (O95747 whole entry): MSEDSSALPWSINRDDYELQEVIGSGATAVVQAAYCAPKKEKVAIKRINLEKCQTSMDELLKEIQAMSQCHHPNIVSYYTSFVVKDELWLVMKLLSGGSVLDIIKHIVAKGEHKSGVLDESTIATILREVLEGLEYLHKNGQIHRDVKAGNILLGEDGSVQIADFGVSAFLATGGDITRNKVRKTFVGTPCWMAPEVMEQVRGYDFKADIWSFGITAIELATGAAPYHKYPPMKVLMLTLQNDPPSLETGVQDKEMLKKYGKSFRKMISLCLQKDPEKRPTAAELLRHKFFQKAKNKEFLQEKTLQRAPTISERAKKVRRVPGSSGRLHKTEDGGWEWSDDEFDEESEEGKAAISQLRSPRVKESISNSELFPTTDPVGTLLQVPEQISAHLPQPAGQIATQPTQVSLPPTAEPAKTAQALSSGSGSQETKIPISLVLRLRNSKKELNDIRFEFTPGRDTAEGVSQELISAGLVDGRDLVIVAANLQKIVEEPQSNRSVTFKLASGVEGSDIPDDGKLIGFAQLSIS
In short: as §1

[7] = target: T2, 140 purified human kinases (Homo sapiens, UniProt Q92630)
T2 sequence (Q92630 1-601): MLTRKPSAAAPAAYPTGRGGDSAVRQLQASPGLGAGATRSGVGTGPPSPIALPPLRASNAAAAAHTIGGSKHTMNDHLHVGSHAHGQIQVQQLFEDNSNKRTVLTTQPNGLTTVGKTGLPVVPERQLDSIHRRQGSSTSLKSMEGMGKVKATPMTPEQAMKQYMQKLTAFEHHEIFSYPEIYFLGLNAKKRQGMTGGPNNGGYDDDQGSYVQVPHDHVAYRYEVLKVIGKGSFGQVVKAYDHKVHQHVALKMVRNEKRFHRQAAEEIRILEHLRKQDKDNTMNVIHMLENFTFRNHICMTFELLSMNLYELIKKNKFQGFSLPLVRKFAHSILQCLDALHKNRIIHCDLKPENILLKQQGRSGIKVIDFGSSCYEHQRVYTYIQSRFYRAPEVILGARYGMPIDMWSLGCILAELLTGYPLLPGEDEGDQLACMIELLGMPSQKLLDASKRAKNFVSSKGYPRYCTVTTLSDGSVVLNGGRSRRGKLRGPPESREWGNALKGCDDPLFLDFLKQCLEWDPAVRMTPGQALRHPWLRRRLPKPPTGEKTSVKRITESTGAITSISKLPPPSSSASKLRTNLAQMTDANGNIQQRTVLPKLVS
In short: as §1

SMILES: CC(=O)[O-].CC(=O)[O-].CC(=O)[O-].CC(=O)[O-].CC(=O)[O-].CC(=O)[O-].[Zn+2].[Zn+2].[Zn+2].c1ccc(-c2csc(NCCN(CCNc3nc(-c4ccccn4)cs3)CCNc3nc(-c4ccccn4)cs3)n2)nc1.c1ccc(-c2csc(NCCN(CCNc3nc(-c4ccccn4)cs3)CCNc3nc(-c4ccccn4)cs3)n2)nc1 [[L2Zn3]6+]
- % Inhibition, Mean [1]: 3.75%
- mean % activity [1]: 96%
- % activity ([1]; duplicate runs): 76% and 117%
- % Inhibition, Mean ([2]; FGF-R1): 82%
- % Inhibition, Run 1 / Run 2 ([2]; FGF-R1): 88% and 76%
- mean % activity ([2]; FGF-R1): 18%
- % Activity inhibition Mean ([2]; FGF-R1, 10 µM): 81.5%
- % Activity inhibition Run 1 ([2]; FGF-R1, 10 µM): 87%
- % Activity inhibition Run 2 ([2]; FGF-R1, 10 µM): 76%
- % Activity remaining Run 1 ([2]; FGF-R1, 10 µM): 13%
- % Activity remaining Run 2 ([2]; FGF-R1, 10 µM): 24%
- % activity ([2]; FGF-R1, duplicate runs): 13% and 24%
- % Inhibition, Mean ([3]; PKD1): 45%
- % Inhibition, Run 1 / Run 2 ([3]; PKD1): 50% and 40%
- mean % activity ([3]; PKD1): 55%
- % activity ([3]; PKD1, duplicate runs): 50% and 60%
- % Inhibition, Mean ([4]; RSK2): 44%
- % Inhibition, Run 1 / Run 2 ([4]; RSK2): 50% and 39%
- mean % activity ([4]; RSK2): 56%
- % activity ([4]; RSK2, duplicate runs): 50% and 61%
- % Inhibition, Mean ([5]; HIPK2): 12%
- mean % activity ([5]; HIPK2): 88%
- % activity ([5]; HIPK2, duplicate runs): 76% and 100%
- % Activation, Mean value ([6]; OSR1): 38%
- % Inhibition, Mean ([6]; OSR1): -38%
- % Inhibition, Run 1 / Run 2 ([6]; OSR1): -37% and -40%
- mean % activity ([6]; OSR1): 138%
- % Activity Run 1 ([6]; OSR1): 137.0%
- % Activity Run 2 ([6]; OSR1): 140.0%
- % activity ([6]; OSR1, duplicate runs): 137% and 140%
- % Activation, Mean value ([7]; DYRK2): 4.5%
- % Inhibition, Mean ([7]; DYRK2): -4.5%
- mean % activity ([7]; DYRK2): 105%
- % activity ([7]; DYRK2, duplicate runs): 97% and 112%

SMILES: [Cu+2].[Cu+2].[Cu+2].c1ccc(-c2csc(NCCN(CCNc3nc(-c4ccccn4)cs3)CCNc3nc(-c4ccccn4)cs3)n2)nc1.c1ccc(-c2csc(NCCN(CCNc3nc(-c4ccccn4)cs3)CCNc3nc(-c4ccccn4)cs3)n2)nc1 [[L2Cu3]6+]
- % Inhibition Run 1 [1]: 59.8%
- % Inhibition Run 2 [1]: 52.2%
- % Inhibition, Mean [1]: 56%
- mean % activity [1]: 44%
- % activity ([1]; Run 1): 40.2%
- % activity ([1]; Run 2): 47.8%
- % Inhibition Run 1 ([2]; FGF-R1): 63.7%
- % Inhibition Run 2 ([2]; FGF-R1): 61.4%
- % Inhibition, Mean ([2]; FGF-R1): 63%
- mean % activity ([2]; FGF-R1): 37%
- % activity ([2]; FGF-R1, Run 1): 36.3%
- % activity ([2]; FGF-R1, Run 2): 38.6%
- % Inhibition Run 1 ([3]; PKD1): 73%
- % Inhibition Run 2 ([3]; PKD1): 71.7%
- % Inhibition, Mean ([3]; PKD1): 72%
- mean % activity ([3]; PKD1): 28%
- % activity ([3]; PKD1, Run 1): 27%
- % activity ([3]; PKD1, Run 2): 28.3%
- % Inhibition Run 1 ([4]; RSK2): 87.4%
- % Inhibition Run 2 ([4]; RSK2): 87.7%
- % Inhibition, Mean ([4]; RSK2): 88%
- mean % activity ([4]; RSK2): 12%
- % activity ([4]; RSK2, Run 1): 12.6%
- % activity ([4]; RSK2, Run 2): 12.3%
- % Inhibition Run 1 ([5]; HIPK2): 50.5%
- % Inhibition Run 2 ([5]; HIPK2): 45.5%
- % Inhibition, Mean ([5]; HIPK2): 48%
- mean % activity ([5]; HIPK2): 52%
- % activity ([5]; HIPK2, Run 1): 49.5%
- % activity ([5]; HIPK2, Run 2): 54.5%
- % Activation, Mean value ([6]; OSR1): 48%
- % Inhibition Run 1 ([6]; OSR1): -39.6%
- % Inhibition Run 2 ([6]; OSR1): -55.9%
- % Inhibition, Mean ([6]; OSR1): -48%
- mean % activity ([6]; OSR1): 148%
- % activity ([6]; OSR1, Run 1): 139.6%
- % activity ([6]; OSR1, Run 2): 155.9%
- % Activity Run 1 ([6]; OSR1): 139.60%
- % Activity Run 2 ([6]; OSR1): 155.90%
- % Inhibition Run 1 ([7]; DYRK2): 27.2%
- % Inhibition Run 2 ([7]; DYRK2): -2.7%
- % Inhibition, Mean ([7]; DYRK2): 12%
- mean % activity ([7]; DYRK2): 88%
- % activity ([7]; DYRK2, Run 1): 72.8%
- % activity ([7]; DYRK2, Run 2): 102.7%
